Molecular target: human MRGPRD (Homo sapiens, UniProt Q8TDS7)
Assay: MRGPRD antagonist activity, IP-One HTRF assay in CHO cells stably expressing human MRGPRD (versus 100 μM β-Alanine agonist)
Type: cell-based
In short: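 CHO cells stably expressing human MRGPRD, plated overnight at 37 °C, were treated with antagonist plus agonist in Tris-HCl/NaCl/LiCl buffer pH 8, incubated 1 h at 37 °C then 1 h at room temperature. IP-1 accumulation read by HTRF; IC50 and percent antagonism of maximum efficacy averaged, SEM reported.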

Chain of human MRGPRD (Q8TDS7 whole entry): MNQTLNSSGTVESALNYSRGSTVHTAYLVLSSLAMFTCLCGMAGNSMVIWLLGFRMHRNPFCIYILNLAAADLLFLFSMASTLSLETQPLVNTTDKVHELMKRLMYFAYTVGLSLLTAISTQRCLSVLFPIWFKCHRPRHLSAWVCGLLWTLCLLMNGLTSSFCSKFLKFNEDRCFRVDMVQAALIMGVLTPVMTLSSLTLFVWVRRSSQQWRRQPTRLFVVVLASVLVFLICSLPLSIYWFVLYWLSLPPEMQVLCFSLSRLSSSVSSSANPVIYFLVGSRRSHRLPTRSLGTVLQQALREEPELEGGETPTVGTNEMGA

`CCc1cc(C)ccc1-n1nnc(C(=O)Nc2ccncc2)c1C1CC1` [Compound 5-6] was tested, and the IC50 was 1 to 3 µM.

For `O=C(Nc1ccncc1)c1nnn(-c2ccc(-c3ccc(CC(F)(F)F)cc3)cc2)c1C1CC1` [Compound 7-59], the IC50 was 0.1 to 0.5 µM.

Work on `O=C(Nc1ccncc1)c1nnn(-c2cccc3ccccc23)c1C1CC1` [Compound 6-2, 5-cyclopropyl-1-(naphthalen-1-yl)-N-(pyridin-4-yl)-1H-1,2,3-triazole-4-carboxamide] yielded an IC50 of 0.1 to 0.5 µM.

With `CCn1cc(-c2ccc(-n3nnc(C(=O)Nc4ccncc4)c3C3CC3)cc2)c(C)n1` [Compound 7-189] the IC50 was 1 to 3 µM.

`O=C(Nc1ccncc1)c1nnn(C2CCCCC2)c1C1CC1` [Compound 6-1] was tested, and the IC50 was 1 to 3 µM.

`CC(=O)c1ccc(-c2cccc(-n3nnc(C(=O)Nc4ccncc4)c3C3CC3)c2)cc1F` [Compound 7-280] gave an IC50 of 0.5 to 1 µM.

`O=C(Nc1ccncc1)c1nnn(-c2ccc(-c3cncnc3)cc2)c1C1CC1` [Compound 7-203] showed an IC50 of 1 to 3 µM.

In the case of `Cn1cc(C#N)c(-c2ccc(-n3nnc(C(=O)Nc4ccncc4)c3C3CC3)cc2)n1` [Compound 7-184], the IC50 is reported as 1 to 3 µM.

Work on `CCn1cc(CNC(=O)c2nnn(-c3ccc(-c4ccc(CC#N)cc4)cc3)c2C2CC2)cn1` [Compound 17-5] yielded an IC50 of 0.1 to 0.5 µM.

With `CCc1ccc(-c2ccc(-n3nnc(C(=O)Nc4ccnc(C)c4)c3C3CC3)cc2)cn1` [Compound 15-23] the IC50 was 0.1 to 0.5 µM.

For `N#CCc1ccc(-n2nnc(C(=O)Nc3ccncc3)c2C2CC2)cc1` [Compound 7-4], the IC50 was > 3 µM.

`Cc1cc(NC(=O)c2nnn(-c3ccc(-c4ccccc4)cc3)c2C2CC2)ccc1F` [Compound 14-58] was tested, and the IC50 was 1 to 3 µM.

With `C#Cc1cc(NC(=O)c2nnn(-c3ccc(-c4ccccc4)cc3)c2C2CC2)ccn1` [Compound 14-18] the IC50 was 0.1 to 0.5 µM.

`Cc1cc(NC(=O)c2nnn(-c3cccc(-c4ccn(C)n4)c3)c2C2CC2)ccn1` [Compound 7-253] showed an IC50 of 0.5 to 1 µM.

`CCn1nc(C)c(-c2ccc(-n3nnc(C(=O)NCc4cccnc4C)c3C3CC3)cc2)c1C` [Compound 9-5] was tested, and the IC50 was < 0.1 µM.

`CN(C)C(=O)c1ccc(-c2ccc(-n3nnc(C(=O)Nc4ccncc4)c3C3CC3)cc2)cc1` [Compound 7-207] gave an IC50 of 1 to 3 µM.

`CCc1ccc(C2(NC(=O)c3nnn(-c4ccc(-c5c(C)nn(-c6ccccc6)c5C)cc4)c3C3CC3)CC2)cn1` [Compound 9-20] showed an IC50 of 0.1 to 0.5 µM.

`O=C(Nc1ccncc1)c1nnn(-c2ccc3c(c2)CCC3)c1C1CC1` [Compound 5-1] was tested, and the IC50 was > 3 µM.

In the case of `CN(C)C(=O)c1cccc(-c2ccc(-n3nnc(C(=O)Nc4ccncc4)c3C3CC3)cc2)c1` [Compound 7-204], the IC50 is reported as 1 to 3 µM.

For `O=C(Nc1ccncc1)c1nnn(-c2cccc(-c3ccccc3F)c2)c1C1CC1` [Compound 7-298], the IC50 was 1 to 3 µM.

Work on `N#CCc1ccc(-c2ccc(-n3nnc(C(=O)NC4(c5cccnc5)CC4)c3C3CC3)cc2)cc1` [Compound 18-9] yielded an IC50 of 1 to 3 µM.

In the case of `Cc1ccccc1-c1cccc(-n2nnc(C(=O)Nc3ccncc3)c2C2CC2)c1` [Compound 7-322], the IC50 is reported as 1 to 3 µM.

`Cc1cc(CNC(=O)c2nnn(-c3ccc(-c4ccccc4)cc3)c2C2CC2)nn1C` [Compound 14-55] gave an IC50 of 1 to 3 µM.

Work on `CN(C)Cc1ccc(-c2ccc(-n3nnc(C(=O)Nc4ccncc4)c3C3CC3)cc2)cc1` [Compound 7-210] yielded an IC50 of 1 to 3 µM.

`O=C(Nc1cncc2[nH]ncc12)c1nnn(-c2ccc(-c3ccccc3)cc2)c1C1CC1` [Compound 14-60] was tested, and the IC50 was 1 to 3 µM.

In the case of `O=C(NC1(c2cccnc2)CC1)c1nnn(-c2cccc(-c3cnn(C4CCC4)c3)c2)c1C1CC1` [Compound 7-10], the IC50 is reported as > 3 µM.

`CC(C)(C)n1cc(-c2ccc(-n3nnc(C(=O)Nc4ccncc4)c3C3CC3)cc2)cn1` [Compound 7-142] was tested, and the IC50 was 0.5 to 1 µM.

For `Cc1cc(NC(=O)c2nnn(-c3ccc(-c4ccccc4)cc3)c2C2CC2)ccn1` [Compound 7-76], the IC50 was 0.1 to 0.5 µM.

In the case of `Cc1ccc(CNC(=O)c2nnn(-c3ccc(-c4ccc(C#N)c(F)c4)cc3)c2C2CC2)cn1` [Compound 17-3, 1-(4′-cyano-3′-fluoro-[1,1′-biphenyl]-4-yl)-5-cyclopropyl-N-((6-methylpyridin-3-yl)methyl)-1H-1,2,3-triazole-4-carboxamide], the IC50 is reported as 0.1 to 0.5 µM.

Work on `C#Cc1cccc(-c2ccc(-n3nnc(C(=O)Nc4ccncc4)c3C3CC3)cc2)c1` [Compound 7-136] yielded an IC50 of 0.5 to 1 µM.

With `Cc1ccc(C2(NC(=O)c3nnn(-c4ccc(-c5ccc(C#N)c(F)c5)cc4)c3C3CC3)CC2)cn1` [Compound 9-7] the IC50 was 0.1 to 0.5 µM.

`Cc1ncccc1CNC(=O)c1nnn(-c2ccc(-c3c(C)nn(C)c3C)cc2)c1C1CC1` [Compound 15-11] showed an IC50 of 0.1 to 0.5 µM.

With `Cn1ncc(-c2ccc(-n3nnc(C(=O)Nc4ccncc4)c3C3CC3)cc2)n1` [Compound 7-78] the IC50 was 0.1 to 0.5 µM.

`Cn1nc(-c2ccc(-n3nnc(C(=O)Nc4ccncc4)c3C3CC3)cc2)cc1N` [Compound 7-215] was tested, and the IC50 was > 3 µM.

With `O=C(Nc1ccncc1)c1nnn(-c2csc3ccccc23)c1C1CC1` [Compound 4-10] the IC50 was 1 to 3 µM.

`Cc1nn(C)c(C)c1-c1ccc(-n2nnc(C(=O)Nc3ccncc3)c2C2CC2)c(C(F)(F)F)c1` [Compound 7-300] showed an IC50 of 1 to 3 µM.

`Cc1ccc(C2(NC(=O)c3nnn(-c4ccc(-c5c(C)nn(C)c5C)cc4)c3C3CC3)CC2)cn1` [Compound 15-17] was tested, and the IC50 was 1 to 3 µM.

Work on `Cc1ccccc1-c1ccc(-n2nnc(C(=O)Nc3ccncc3)c2C2CC2)cc1` [Compound 7-96] yielded an IC50 of 0.1 to 0.5 µM.

For `C[C@H](NC(=O)c1nnn(-c2ccc(-c3ccccc3)cc2)c1C1CC1)c1ccc(Cl)cc1` [Compound 14-28], the IC50 was 1 to 3 µM.

`Cc1noc(C)c1-c1ccc(-n2nnc(C(=O)Nc3ccncc3)c2C2CC2)cc1` [Compound 7-40] was tested, and the IC50 was 0.1 to 0.5 µM.

`O=C(Nc1ccncc1)c1nnn(-c2ccc(-c3cc(C(F)(F)F)[nH]n3)cc2)c1C1CC1` [Compound 7-183] gave an IC50 of 1 to 3 µM.

`N#Cc1cnn(-c2ccccc2)c1-c1ccc(-n2nnc(C(=O)Nc3ccncc3)c2C2CC2)cc1` [Compound 7-216] was tested, and the IC50 was > 3 µM.

In the case of `O=C(Nc1ccncc1)c1nnn(-c2ccc(-c3cccc(C(F)F)c3)cc2)c1C1CC1` [Compound 7-122], the IC50 is reported as 0.5 to 1 µM.

Molecule `CC(O)c1cccc(-c2ccc(-n3nnc(C(=O)Nc4ccncc4)c3C3CC3)cc2)c1` (stereo not shown) [Compound 7-117] has an IC50 of 0.5 to 1 µM.

For `O=C(Nc1ccncc1)c1nnn(-c2cccc(-c3ccn[nH]3)c2)c1C1CC1` [Compound 7-295], the IC50 was 1 to 3 µM.

Work on `O=C(Nc1ccncc1)c1nnn(-c2ccc(-c3cnn(C4CCC4)c3)cc2)c1C1CC1` [Compound 7-62] yielded an IC50 of 0.1 to 0.5 µM.

Molecule `O=C(Nc1ccncc1)c1nnn(-c2ccc(-c3cnn(Cc4cccs4)c3)cc2)c1C1CC1` [Compound 7-29] has an IC50 of 0.1 to 0.5 µM.

With `CCn1cc(CNC(=O)c2nnn(-c3ccc(-c4c(C)nn5cccnc45)cc3)c2C2CC2)cn1` [Compound 10-6] the IC50 was 0.1 to 0.5 µM.

`O=C(Nc1ccncc1)c1nnn(-c2ccccc2C(F)(F)F)c1C1CC1` [Compound 4-3] showed an IC50 of 1 to 3 µM.

Molecule `CC(=O)c1ccc(-c2ccc(-n3nnc(C(=O)Nc4ccncc4)c3C3CC3)cc2)s1` [Compound 7-147] has an IC50 of 0.5 to 1 µM.

In the case of `Cc1cncc(C2(NC(=O)c3nnn(-c4ccc(-c5ccc(C#N)cc5)cc4)c3C3CC3)CC2)c1` [Compound 18-5], the IC50 is reported as 1 to 3 µM.

`CCn1cc(-c2cccc(-n3nnc(C(=O)Nc4ccncc4)c3C3CC3)c2)cn1` [Compound 7-309] showed an IC50 of 1 to 3 µM.

For `Cc1nn(C)c(C)c1-c1ccc(-n2nnc(C(=O)Nc3ccncc3)c2C2CC2)cc1` [Compound 7-33], the IC50 was 0.1 to 0.5 µM.

With `CCc1cc(NC(=O)c2nnn(-c3ccc(-c4c(C)nn(CC)c4C)cc3)c2C2CC2)ccn1` [Compound 9-16] the IC50 was 0.1 to 0.5 µM.

With `CC(=O)c1ccc(-c2cccc(-n3nnc(C(=O)Nc4ccncc4)c3C3CC3)c2)c(C)c1` [Compound 7-263] the IC50 was 0.5 to 1 µM.

`Cc1[nH]ncc1CNC(=O)c1nnn(-c2ccc(-c3ccccc3)cc2)c1C1CC1` [Compound 14-5] was tested, and the IC50 was > 3 µM.

In the case of `Cc1ccc(CNC(=O)c2nnn(-c3cccc(-c4ccc(C#N)cc4)c3)c2C2CC2)cn1` [Compound 7-7], the IC50 is reported as > 3 µM.

`COc1cc(-n2nnc(C(=O)Nc3ccncc3)c2C2CC2)ccc1-c1c(C)nn(C)c1C` [Compound 7-275] was tested, and the IC50 was 0.5 to 1 µM.

With `COCC1(NC(=O)c2nnn(-c3ccc(-c4ccccc4)cc3)c2C2CC2)CCCC1` [Compound 14-83] the IC50 was > 3 µM.

`COc1ccc(-c2ccc(-n3nnc(C(=O)Nc4ccncc4)c3C3CC3)cc2)cc1C` [Compound 7-84] was tested, and the IC50 was 0.1 to 0.5 µM.

With `O=C(Nc1ccncc1)c1nnn(-c2ccc(-c3cnn(C4CC4)c3)cc2)c1C1CC1` [Compound 7-88] the IC50 was 0.1 to 0.5 µM.

`Cc1ccc(CNC(=O)c2nnn(-c3ccc(-c4ccc(C#N)cc4)cc3)c2C2CC2)cn1` [Compound 15-3] was tested, and the IC50 was 0.5 to 1 µM.

`Cc1nn(C)cc1-c1ccc(-n2nnc(C(=O)Nc3ccncc3)c2C2CC2)cc1` [Compound 7-72] was tested, and the IC50 was 0.1 to 0.5 µM.

`Cc1ccc(-c2ccc(-n3nnc(C(=O)Nc4ccncc4)c3C3CC3)cc2)cc1` [Compound 7-44] was tested, and the IC50 was 0.1 to 0.5 µM.

For `CC1(C)COCCC1NC(=O)c1nnn(-c2ccc(-c3ccccc3)cc2)c1C1CC1` (stereo not shown) [Compound 14-44], the IC50 was 1 to 3 µM.

`CCn1cc(CNC(=O)c2nnn(-c3ccc(-c4ccc(C#N)cc4)cc3F)c2C(C)C)cn1` [Compound 17-19] was tested, and the IC50 was 0.1 to 0.5 µM.

For `O=C(N[C@H]1CCC[C@@H]1O)c1nnn(-c2ccc(-c3ccccc3)cc2)c1C1CC1` [Compound 14-82], the IC50 was > 3 µM.

`N#Cc1cccc(-c2cccc(-n3nnc(C(=O)Nc4ccncc4)c3C3CC3)c2)c1` [Compound 7-293] was tested, and the IC50 was 1 to 3 µM.

`N#Cc1ccc(-c2ccc(-n3nnc(C(=O)NC4(c5cccnc5)CC4)c3C3CC3)c(F)c2)cc1` [Compound 22-2] was tested, and the IC50 was 0.5 to 1 µM.

`Cc1ccc(-n2nnc(C(=O)Nc3ccncc3)c2C2CC2)c(C)c1` [Compound 2-8] was tested, and the IC50 was 1 to 3 µM.

With `CC(NC(=O)c1nnn(-c2ccc(-c3ccccc3)cc2)c1C1CC1)c1nccs1` (stereo not shown) [Compound 14-3] the IC50 was > 3 µM.

`Cc1ncccc1CNC(=O)c1nnn(-c2ccc(-c3ccc(C#N)c(F)c3)cc2)c1C1CC1` [Compound 16-1, 1-(4′-cyano-3′-fluoro-[1,1′-biphenyl]-4-yl)-5-cyclopropyl-N-((2-methylpyridin-3-yl)methyl)-1H-1,2,3-triazole-4-carboxamide] was tested, and the IC50 was < 0.1 µM.

Work on `O=C(Nc1ccncc1)c1nnn(-c2ccc(-c3ccccn3)cc2)c1C1CC1` [Compound 7-200] yielded an IC50 of 1 to 3 µM.
